Source: PubChem BioAssay (NCI)
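Assay format: 96-well plates, 48-hour exposure. GI50 is the concentration that inhibits growth by half. TGI: concentration producing complete growth inhibition.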

Tests used:
Assay in all cases: NCI anticancer screen, dose series, 48 h
SK-OV-3 ovarian = test system: SK-OV-3 ovarian
T-47D breast = test system: T-47D breast
NCI-H460 lung = test system: NCI-H460 lung
UO-31 renal = test system: UO-31 renal
SK-MEL-5 melanoma = test system: SK-MEL-5 melanoma
MALME-3M melanoma = test system: MALME-3M melanoma
BT-549 breast = test system: BT-549 breast
DU-145 prostate = test system: DU-145 prostate
SR leukemia = test system: SR leukemia
NCI-H522 lung = test system: NCI-H522 lung
MCF7 breast = test system: MCF7 breast
OVCAR-4 ovarian = test system: OVCAR-4 ovarian
SF-539 CNS = test system: SF-539 CNS
SN12C renal = test system: SN12C renal
MOLT-4 leukemia = test system: MOLT-4 leukemia
KM12 colon = test system: KM12 colon
MDA-MB-231 breast = test system: MDA-MB-231 breast
ACHN renal = test system: ACHN renal
SK-MEL-2 melanoma = test system: SK-MEL-2 melanoma
NCI/ADR-RES ovarian = test system: NCI/ADR-RES ovarian
SW-620 colon = test system: SW-620 colon
SK-MEL-28 melanoma = test system: SK-MEL-28 melanoma
UACC-62 melanoma = test system: UACC-62 melanoma
CAKI-1 renal = test system: CAKI-1 renal
M14 melanoma = test system: M14 melanoma
TK-10 renal = test system: TK-10 renal
HOP-62 NSCLC = test system: HOP-62 NSCLC

Structure (SMILES): CC1(C)OC2=C(CC1Br)C(=O)C(=O)c1ccccc12 (centres undefined)
- GI50 (SK-OV-3 ovarian): 1960 nM
- TGI (SK-OV-3 ovarian): 3470 nM
- GI50 (T-47D breast): 2030 nM
- TGI (T-47D breast): 4720 nM
- GI50 (NCI-H460 lung): 2080 nM
- TGI (NCI-H460 lung): 3960 nM
- GI50 (UO-31 renal): 1350 nM
- TGI (UO-31 renal): 2760 nM
- GI50 (SK-MEL-5 melanoma): 1530 nM
- TGI (SK-MEL-5 melanoma): 2890 nM
- GI50 (MALME-3M melanoma): 1800 nM
- TGI (MALME-3M melanoma): 3520 nM
- GI50 (BT-549 breast): 1850 nM
- TGI (BT-549 breast): 3340 nM
- GI50 (DU-145 prostate): 1670 nM
- TGI (DU-145 prostate): 3050 nM
- GI50 (SR leukemia): 3970 nM
- TGI (SR leukemia): 7440 nM
- GI50 (NCI-H522 lung): 1620 nM
- TGI (NCI-H522 lung): 3030 nM
- GI50 (MCF7 breast): 1680 nM
- TGI (MCF7 breast): 3740 nM
- GI50 (OVCAR-4 ovarian): 1670 nM
- TGI (OVCAR-4 ovarian): 3030 nM
- GI50 (SF-539 CNS): 1820 nM
- TGI (SF-539 CNS): 3370 nM
- GI50 (SN12C renal): 1840 nM
- TGI (SN12C renal): 3750 nM
- GI50 (MOLT-4 leukemia): 2270 nM
- TGI (MOLT-4 leukemia): 5260 nM
- GI50 (KM12 colon): 1750 nM
- TGI (KM12 colon): 3190 nM
- GI50 (MDA-MB-231 breast): 2350 nM
- TGI (MDA-MB-231 breast): 6420 nM
- GI50 (ACHN renal): 2030 nM
- TGI (ACHN renal): 3840 nM
- GI50 (SK-MEL-2 melanoma): 1650 nM
- TGI (SK-MEL-2 melanoma): 3570 nM
- GI50 (NCI/ADR-RES ovarian): 2260 nM
- TGI (NCI/ADR-RES ovarian): 5220 nM
- GI50 (SW-620 colon): 1910 nM
- TGI (SW-620 colon): 3490 nM
- GI50 (SK-MEL-28 melanoma): 1820 nM
- TGI (SK-MEL-28 melanoma): 3240 nM
- GI50 (UACC-62 melanoma): 2080 nM
- TGI (UACC-62 melanoma): 3980 nM
- GI50 (CAKI-1 renal): 1660 nM
- TGI (CAKI-1 renal): 3150 nM
- GI50 (M14 melanoma): 1900 nM
- TGI (M14 melanoma): 3640 nM
- GI50 (TK-10 renal): 1990 nM
- TGI (TK-10 renal): 3450 nM
- GI50 (HOP-62 NSCLC): 1990 nM
- TGI (HOP-62 NSCLC): 3620 nM
